How the values were obtained:
Format in all cases: in vivo
[1] = test system: Echinochloa crus-galli (ECHCG); experiment: Post-emergence biological efficacy, glasshouse pot test; details: 312 h
In short: (§1)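 Scored 13 days after spraying on a 0 (no damage) to 100 (total damage) scale. Treatment was a post-emergence spray at 1000 or 250 g/ha, from acetone/water 50:50 plus 0.5% Tween 20, onto 8-day-old plants in soil pots. Growth at 24/16° C, 14 h photoperiod, 65% humidity, watered twice daily.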

[2] = test system: Ipomea hederaceae (IPOHE); experiment: as above; details: Ipomoea hederacea, 312 h
In short: as §1

[3] = test system: Amaranthus retoflexus (AMARE); experiment: as above; details: Amaranthus retroflexus, 312 h
In short: as §1

[4] = test system: Alopecurus myosuroides (ALOMY); experiment: as above; details: 312 h
In short: as §1

[5] = test system: Solanum nigrum (SOLNI); experiment: as above; details: 312 h
In short: as §1

[6] = test system: Setaria faberi (SETFA); experiment: as above; details: 312 h
In short: as §1

[7] = test system: Echinochloa crus-galli (ECHCG); experiment: Pre-emergence biological efficacy, glasshouse pot test; details: 312 h
In short: (§2)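 Sow seeds in pots of standard soil; after one day in the glasshouse, spray test compound (1000 or 250 g/ha) in aqueous acetone/water with 0.5% Tween 20. Grow 13 days at 24/16 °C day/night, then score damage from 0 to 100.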

[8] = test system: Ipomea hederaceae (IPOHE); experiment: as above; details: Ipomoea hederacea, 312 h
In short: as §2

[9] = test system: Amaranthus retoflexus (AMARE); experiment: as above; details: Amaranthus retroflexus, 312 h
In short: as §2

[10] = test system: Alopecurus myosuroides (ALOMY); experiment: as above; details: 312 h
In short: as §2

[11] = test system: Solanum nigrum (SOLNI); experiment: as above; details: 312 h
In short: as §2

[12] = test system: Setaria faberi (SETFA); experiment: as above; details: 312 h
In short: as §2

[13] = post-emergence, 1,000 g/ha, evaluated after 13 days (100=total damage; 0=no damage), read-out: Percentage damage caused to weed species, ECHCG
[14] = post-emergence, 1,000 g/ha, evaluated after 13 days (100=total damage; 0=no damage), read-out: Percentage damage caused to weed species, IPOHE
[15] = post-emergence, 1,000 g/ha, evaluated after 13 days (100=total damage; 0=no damage), read-out: Percentage damage caused to weed species, AMARE
[16] = post-emergence, 1,000 g/ha, evaluated after 13 days (100=total damage; 0=no damage), read-out: Percentage damage caused to weed species, ALOMY
[17] = post-emergence, 1,000 g/ha, evaluated after 13 days (100=total damage; 0=no damage), read-out: Percentage damage caused to weed species, SOLNI
[18] = post-emergence, 1,000 g/ha, evaluated after 13 days (100=total damage; 0=no damage), read-out: Percentage damage caused to weed species, SETFA
[19] = pre-emergence, 1,000 g/ha, evaluated after 13 days (100=total damage; 0=no damage), read-out: Percentage damage ECHCG
[20] = pre-emergence, 1,000 g/ha, evaluated after 13 days (100=total damage; 0=no damage), read-out: Percentage damage IPOHE
[21] = pre-emergence, 1,000 g/ha, evaluated after 13 days (100=total damage; 0=no damage), read-out: Percentage damage AMARE
[22] = pre-emergence, 1,000 g/ha, evaluated after 13 days (100=total damage; 0=no damage), read-out: Percentage damage ALOMY
[23] = pre-emergence, 1,000 g/ha, evaluated after 13 days (100=total damage; 0=no damage), read-out: Percentage damage SOLNI
[24] = pre-emergence, 1,000 g/ha, evaluated after 13 days (100=total damage; 0=no damage), read-out: Percentage damage SETFA

Row | Compound | pest or weed control at 1000 g/ha [1, 13] [%] | pest or weed control at 1000 g/ha [2, 14] [%] | pest or weed control at 1000 g/ha [3, 15] [%] | pest or weed control at 1000 g/ha [4, 16] [%] | pest or weed control at 1000 g/ha [5, 17] [%] | pest or weed control at 1000 g/ha [6, 18] [%] | pest or weed control at 1000 g/ha [7, 19] [%] | pest or weed control at 1000 g/ha [8, 20] [%] | pest or weed control at 1000 g/ha [9, 21] [%] | pest or weed control at 1000 g/ha [10, 22] [%] | pest or weed control at 1000 g/ha [11, 23] [%] | pest or weed control at 1000 g/ha [12, 24] [%] | further results
1 | CCOC(=O)c1nc(C2CC2)nc(NCc2ccccc2)c1Cl [Compound 7-60, 5-chloro-2-cyclopropyl-6-ethoxycarbonyl-4-phenylmethyl-aminopyrimidine] |  |  |  |  |  |  |  |  |  |  |  |  | pest or weed control at 1000 g/ha ([1]; Rate 1,000 g/ha, post-emergence spray, evaluated after 13 days (100=total damage to plant; 0=no damage to plant), read-out: Percentage damage caused to weed species, post-emergence, ECHCG): 70%; pest or weed control at 1000 g/ha ([2]; Rate 1,000 g/ha, post-emergence spray, evaluated after 13 days (100=total damage to plant; 0=no damage to plant), read-out: Percentage damage caused to weed species, post-emergence, IPOHE): 90%; pest or weed control at 1000 g/ha ([3]; Rate 1,000 g/ha, post-emergence spray, evaluated after 13 days (100=total damage to plant; 0=no damage to plant), read-out: Percentage damage caused to weed species, post-emergence, AMARE): 100%; pest or weed control at 1000 g/ha ([4]; Rate 1,000 g/ha, post-emergence spray, evaluated after 13 days (100=total damage to plant; 0=no damage to plant), read-out: Percentage damage caused to weed species, post-emergence, ALOMY): 30%; pest or weed control at 1000 g/ha ([5]; Rate 1,000 g/ha, post-emergence spray, evaluated after 13 days (100=total damage to plant; 0=no damage to plant), read-out: Percentage damage caused to weed species, post-emergence, SOLNI): 90%; pest or weed control at 1000 g/ha ([6]; Rate 1,000 g/ha, post-emergence spray, evaluated after 13 days (100=total damage to plant; 0=no damage to plant), read-out: Percentage damage caused to weed species, post-emergence, SETFA): 90%; pest or weed control at 1000 g/ha ([7]; pre-emergence, rate 1,000 g/ha, evaluated after 13 days (100=total damage to plant; 0=no damage), read-out: Percentage damage caused to weed species, ECHCG): 50%; pest or weed control at 1000 g/ha ([8]; pre-emergence, rate 1,000 g/ha, evaluated after 13 days (100=total damage to plant; 0=no damage), read-out: Percentage damage caused to weed species, IPOHE): 70%; pest or weed control at 1000 g/ha ([9]; pre-emergence, rate 1,000 g/ha, evaluated after 13 days (100=total damage to plant; 0=no damage), read-out: Percentage damage caused to weed species, AMARE): 70%; pest or weed control at 1000 g/ha ([10]; pre-emergence, rate 1,000 g/ha, evaluated after 13 days (100=total damage to plant; 0=no damage), read-out: Percentage damage caused to weed species, ALOMY): 30%; pest or weed control at 1000 g/ha ([11]; pre-emergence, rate 1,000 g/ha, evaluated after 13 days (100=total damage to plant; 0=no damage), read-out: Percentage damage caused to weed species, SOLNI): 90%; pest or weed control at 1000 g/ha ([12]; pre-emergence, rate 1,000 g/ha, evaluated after 13 days (100=total damage to plant; 0=no damage), read-out: Percentage damage caused to weed species, SETFA): 50%
2 | COC(=O)c1nc(C2CC2)nc(NC(Cc2ccc(F)cc2)C(=O)OC)c1Cl (stereo not drawn) [Compound 4-284, 5-Chloro-2-cyclopropyl-4-[2-(4-fluorophenyl)-1-methoxycarbonyl-ethylamino]-6-methoxycarbonyl-pyrimidine] | 20 | 100 | 100 | 30 | 80 | 40 | 30 | 100 | 100 | 20 | 90 | 30 | 
3 | COC(=O)c1nc(C2CC2)nc(NC(c2ccccc2)c2ccc(Cl)cc2)c1Cl (stereo not drawn) [Compound 4-278, 5-Chloro-4-[(4-chlorophenyl)-(phenyl)-methylamino]-2-cyclopropyl-6-methoxycarbonyl-pyrimidine] | 20 | 60 | 90 | 10 | 30 | 40 | 10 | 20 | 40 | 0 | 10 | 10 | 
4 | COC(=O)c1nc(C2CC2)nc(NCc2ccc(Cl)cc2Cl)c1Cl [Compound 4-103, 5-Chloro-2-cyclopropyl-4-(2,4-dichlorophenyl-methylamino)-6-methoxycarbonyl-pyrimidine] | 60 | 90 | 100 | 20 | 80 | 70 | 0 | 30 | 40 | 10 | 10 | 0 | 
5 | COC(=O)c1nc(C2CC2)nc(Nc2ccccc2)c1Cl [Compound 4-39, 5-Chloro-2-cyclopropyl-6-methoxycarbonyl-4-phenylamino-pyrimidine] | 70 | 70 | 100 | 50 | 80 | 60 | 20 | 80 | 60 | 0 | 50 | 0 | 
6 | COC(=O)c1nc(C2CC2)nc(NC2(/C=C\c3ccccc3)CC2)c1Cl [4-19 (Z), 5-Chloro-2-cyclopropyl-6-methoxycarbonyl-[(Z)-1-(2-phenylethenyl)-cyclopropylamino]-pyrimidine] | 30 | 100 | 100 | 10 | 90 | 60 | 20 | 90 | 90 | 20 | 40 | 0 | 
